Laboratory results published in ChEMBL document CHEMBL3785024 (Br J Clin Pharmacol, 2004).

How the values were obtained:
Assay type in all cases: ADME, organism-based
Homo sapiens [1] = assay: AUC (0 to 24 hrs) in healthy human subjects assessed as simvastatin acid at 40 mg with 200 ml grape fruit juice drug administered as single dose on day 3 of grape fruit juice challenge measured upto 24 hrs by LC-MS analysis; parameters: time < 24 hr, dose 40 mg; settings: in vivo
Homo sapiens [2] = assay: Cmax in healthy human subjects assessed as simvastatin acid at 40 mg with 200 ml grape fruit juice drug administered as single dose on day 3 of grape fruit juice challenge measured upto 24 hrs by LC-MS analysis; parameters: dose 40 mg; settings: in vivo
[3] = Elimination half life in healthy human subjects at 40 mg with 200 ml grape fruit juice drug administered as single dose on day 3 of grape fruit juice challenge measured upto 24 hrs by LC-MS analysis; settings: in vivo, oral, read-out: beta t1/2 (converted)
Homo sapiens [4] = assay: Elimination half life in healthy human subjects assessed as simvastatin acid at 40 mg with 200 ml grape fruit juice drug administered as single dose on day 3 of grape fruit juice challenge measured upto 24 hrs by LC-MS analysis; settings: in vivo
[5] = Elimination half life in healthy human subjects at 40 mg with water administered as single dose measured upto 24 hrs by LC-MS analysis; settings: in vivo, oral, read-out: beta t1/2 (converted)
[6] = AUC (0 to 24 hrs) in healthy human subjects at 40 mg with 200 ml grape fruit juice drug administered as single dose on day 3 of grape fruit juice challenge measured upto 24 hrs by LC-MS analysis; parameters: dose 40 mg, time < 24 hr; settings: in vivo, oral
Homo sapiens [7] = assay: Elimination half life in healthy human subjects assessed as simvastatin acid at 40 mg with water administered as single dose measured upto 24 hrs by LC-MS analysis; settings: in vivo
Homo sapiens [8] = assay: AUC (0 to 24 hrs) in healthy human subjects assessed as simvastatin acid at 40 mg with water administered as single dose measured upto 24 hrs by LC-MS analysis; parameters: dose 40 mg, time < 24 hr; settings: in vivo, po
[9] = Cmax in healthy human subjects at 40 mg with 200 ml grape fruit juice drug administered as single dose on day 3 of grape fruit juice challenge measured upto 24 hrs by LC-MS analysis; parameters: dose 40 mg; settings: in vivo, oral
Homo sapiens [10] = assay: Cmax in healthy human subjects assessed as simvastatin acid at 40 mg with water administered as single dose measured upto 24 hrs by LC-MS analysis; parameters: dose 40 mg; settings: in vivo, po
[11] = Cmax in healthy human subjects at 40 mg with water administered as single dose measured upto 24 hrs by LC-MS analysis; parameters: dose 40 mg; settings: in vivo, oral
[12] = AUC (0 to 24 hrs) in healthy human subjects at 40 mg with water administered as single dose measured upto 24 hrs by LC-MS analysis; parameters: time < 24 hr, dose 40 mg; settings: in vivo, oral

## CCC(C)(C)C(=O)O[C@H]1C[C@@H](C)C=C2C=C[C@H](C)[C@H](CC[C@@H]3C[C@@H](O)CC(=O)O3)[C@H]21 [SIMVASTATIN]
Homo sapiens [1]
  AUC: 62 ng·h/mL
Homo sapiens [2]
  Cmax: 11.1 ng/mL
[3]
  half-life: 2 h
Homo sapiens [4]
  beta t1/2: 2.4 h
[5]
  half-life: 2.7 h
[6]
  AUC(0-t) at 24 h: 112 ng·h/mL
Homo sapiens [7]
  beta t1/2: 2.9 h
Homo sapiens [8]
  AUC: 18.5 ng·h/mL
[9]
  Cmax: 28.5 ng/mL
Homo sapiens [10]
  Cmax: 2.6 ng/mL
[11]
  Cmax: 7.3 ng/mL
[12]
  AUC(0-t) at 24 h: 31.6 ng·h/mL
